Earlier results, collected in US8188245B2, “Enduracidin biosynthetic gene cluster from streptomyces fungicidicus” (priority 2006, dated 2012).

Columns and labels:
[1] = system: Gram-positive organisms, including MRSA
[2] = system: S. aureus (100 strains, including 40% MRSA); details: 100 strains of S. aureus
[3] = system: vancomycin resistant bacteria

Substance: Enduracidin
- Toxicity or side effects (MRSA; in vivo): No toxicity or side effects were reported
- Efficacy in humans (MRSA; urinary tract and skin infections caused by MRSA): effective
- Type of antibacterial effect ([1]; in vitro): bactericidal
- Minimal inhibitory concentrations (MICs) ([1]; wide spectrum of primarily Gram-positive organisms, lowest MICs ("as low as")): ≥ 0.05 µg/mL
- Antibacterial activity ([1]; wide variety of Gram-positive bacteria, including VRE and MRSA): active
- Concentration that no strain was able to survive [2]: 1 µg/mL
- Antibacterial activity [3]: active
